The source of these data is PubChem BioAssay AID1745844 (Carcinogenic Potency Database (CPDB), 2022).

The test system of this data set is rodent lifetime carcinogenesis bioassay, tumor incidence TD50. Briefly: chronic cancer bioassays in animals – CPDB, compiled studies (AID 1745844).

Where “and” joins values, the source holds several entries; their conditions need not be identical. Identical values can stand only once. Calls of active or inactive are those of the source. The rule behind the calls is not given here.

For the compound `C=CC(=C)C`, the TD50 was 319 mg/kg/day (mouse, strain B6C3F1, females, inhaled, site: Harderian gland, lesion: adenoma, dosed 80 weeks, study length 105 weeks); 247 mg/kg/day (mouse, strain B6C3F1, females, inhaled, site: pituitary gland, lesion: pars distalis adenoma, dosed 80 weeks, study length 105 weeks); 682 mg/kg/day (mouse, strain B6C3F1, females, inhaled, site: spleen, lesion: hemangiosarcoma, dosed 80 weeks, study length 105 weeks); 96.8 mg/kg/day (mouse, strain B6C3F1, males, inhaled, site: Harderian gland, lesion: adenoma + carcinoma, dosed 26 weeks, study length 53 weeks); 96.8 mg/kg/day (mouse, strain B6C3F1, males, inhaled, site: Harderian gland, lesion: adenoma, dosed 26 weeks, study length 53 weeks); 739 mg/kg/day (mouse, strain B6C3F1, males, inhaled, site: Harderian gland, lesion: adenoma, dosed 40 weeks, study length 105 weeks). In addition, the TD50 is, setting by setting: (mouse, strain B6C3F1, males, inhaled, site: Harderian gland, lesion: adenoma, dosed 80 weeks, study length 96 weeks) 711 mg/kg/day; (mouse, strain B6C3F1, males, inhaled, site: Harderian gland, lesion: adenoma, dosed 80 weeks, study length 105 weeks) 881 mg/kg/day; (mouse, strain B6C3F1, males, inhaled, site: Harderian gland, lesion: carcinoma, dosed 26 weeks, study length 53 weeks) 14700 mg/kg/day; (mouse, strain B6C3F1, males, inhaled, site: Harderian gland, lesion: carcinoma, dosed 80 weeks, study length 96 weeks) 12800 mg/kg/day; (mouse, strain B6C3F1, males, inhaled, site: Harderian gland, lesion: carcinoma, dosed 80 weeks, study length 105 weeks) 15000 mg/kg/day; (mouse, strain B6C3F1, males, inhaled, site: any site (literature study), lesion: several types, types named in the paper, dosed 26 weeks, study length 53 weeks) 348 mg/kg/day. In addition, the TD50 runs as follows: (mouse, strain B6C3F1, males, inhaled, site: forestomach + Harderian gland + liver + lung, lesion: squamous-cell carcinoma + squamous-cell papilloma + adenoma + carcinoma + hepatocellular adenoma + hepatocellular carcinoma + alveol, dosed 26 weeks, study length 53 weeks) 355 mg/kg/day; (mouse, strain B6C3F1, males, inhaled, site: forestomach, lesion: squamous-cell carcinoma + squamous-cell papilloma, dosed 26 weeks, study length 53 weeks) 1310 mg/kg/day; (mouse, strain B6C3F1, males, inhaled, site: forestomach, lesion: squamous-cell carcinoma, dosed 26 weeks, study length 53 weeks) 4850 mg/kg/day; (mouse, strain B6C3F1, males, inhaled, site: forestomach, lesion: squamous-cell carcinoma, dosed 80 weeks, study length 96 weeks) 25800 mg/kg/day; (mouse, strain B6C3F1, males, inhaled, site: forestomach, lesion: squamous-cell carcinoma, dosed 80 weeks, study length 105 weeks) 22200 mg/kg/day; (mouse, strain B6C3F1, males, inhaled, site: forestomach, lesion: squamous-cell papilloma, dosed 26 weeks, study length 53 weeks) 1860 mg/kg/day. In addition, the TD50 runs as follows: (mouse, strain B6C3F1, males, inhaled, site: forestomach, lesion: squamous-cell papilloma, dosed 40 weeks, study length 105 weeks) 15600 mg/kg/day; (mouse, strain B6C3F1, males, inhaled, site: forestomach, lesion: squamous-cell papilloma, dosed 80 weeks, study length 96 weeks) 25800 mg/kg/day; (mouse, strain B6C3F1, males, inhaled, site: forestomach, lesion: squamous-cell papilloma, dosed 80 weeks, study length 105 weeks) 45000 mg/kg/day; (mouse, strain B6C3F1, males, inhaled, site: heart, lesion: hemangiosarcoma, dosed 40 weeks, study length 105 weeks) 32900 mg/kg/day; (mouse, strain B6C3F1, males, inhaled, site: heart, lesion: hemangiosarcoma, dosed 80 weeks, study length 96 weeks) 25800 mg/kg/day; (mouse, strain B6C3F1, males, inhaled, site: heart, lesion: hemangiosarcoma, dosed 80 weeks, study length 105 weeks) 39000 mg/kg/day. Also, the TD50 (mouse, strain B6C3F1, males, inhaled, site: liver, lesion: hepatocellular adenoma + hepatoblastoma + hepatocellular carcinoma, dosed 26 weeks, study length 53 weeks) turned out to be 183 mg/kg/day; the TD50 (mouse, strain B6C3F1, males, inhaled, site: liver, lesion: hepatocellular adenoma + hepatocellular carcinoma, dosed 26 weeks, study length 53 weeks) was 183 mg/kg/day; the TD50 (mouse, strain B6C3F1, males, inhaled, site: liver, lesion: hepatocellular adenoma, dosed 26 weeks, study length 53 weeks) was 150 mg/kg/day; the TD50 (mouse, strain B6C3F1, males, inhaled, site: liver, lesion: hepatocellular adenoma, dosed 40 weeks, study length 105 weeks) was 1070 mg/kg/day; the TD50 (mouse, strain B6C3F1, males, inhaled, site: liver, lesion: hepatocellular adenoma, dosed 80 weeks, study length 96 weeks) is 1760 mg/kg/day; the TD50 (mouse, strain B6C3F1, males, inhaled, site: liver, lesion: hepatocellular adenoma, dosed 80 weeks, study length 105 weeks) is 1570 mg/kg/day. Further, the TD50 was 1270 mg/kg/day (mouse, strain B6C3F1, males, inhaled, site: liver, lesion: hepatocellular carcinoma, dosed 26 weeks, study length 53 weeks); 2330 mg/kg/day (mouse, strain B6C3F1, males, inhaled, site: liver, lesion: hepatocellular carcinoma, dosed 40 weeks, study length 105 weeks); 3290 mg/kg/day (mouse, strain B6C3F1, males, inhaled, site: liver, lesion: hepatocellular carcinoma, dosed 80 weeks, study length 96 weeks); 4850 mg/kg/day (mouse, strain B6C3F1, males, inhaled, site: liver, lesion: hepatocellular carcinoma, dosed 80 weeks, study length 105 weeks); 752 mg/kg/day (mouse, strain B6C3F1, males, inhaled, site: lung, lesion: alveolar/bronchiolar adenoma + alveolar/bronchiolar carcinoma, dosed 26 weeks, study length 53 weeks); 836 mg/kg/day (mouse, strain B6C3F1, males, inhaled, site: lung, lesion: alveolar/bronchiolar adenoma, dosed 26 weeks, study length 53 weeks). The TD50 is 908 mg/kg/day (mouse, strain B6C3F1, males, inhaled, site: lung, lesion: alveolar/bronchiolar adenoma, dosed 40 weeks, study length 105 weeks); 4810 mg/kg/day (mouse, strain B6C3F1, males, inhaled, site: lung, lesion: alveolar/bronchiolar adenoma, dosed 80 weeks, study length 96 weeks); 1660 mg/kg/day (mouse, strain B6C3F1, males, inhaled, site: lung, lesion: alveolar/bronchiolar adenoma, dosed 80 weeks, study length 105 weeks); 2790 mg/kg/day (mouse, strain B6C3F1, males, inhaled, site: lung, lesion: alveolar/bronchiolar carcinoma, dosed 26 weeks, study length 53 weeks); 9230 mg/kg/day (mouse, strain B6C3F1, males, inhaled, site: lung, lesion: alveolar/bronchiolar carcinoma, dosed 40 weeks, study length 105 weeks); 8410 mg/kg/day (mouse, strain B6C3F1, males, inhaled, site: lung, lesion: alveolar/bronchiolar carcinoma, dosed 80 weeks, study length 96 weeks). In addition, the TD50 (mouse, strain B6C3F1, males, inhaled, site: lung, lesion: alveolar/bronchiolar carcinoma, dosed 80 weeks, study length 105 weeks) is 6680 mg/kg/day; the TD50 (mouse, strain B6C3F1, males, inhaled, site: lymphoreticular system, lesion: histiocytic sarcoma, dosed 40 weeks, study length 105 weeks) is 4430 mg/kg/day; the TD50 (mouse, strain B6C3F1, males, inhaled, site: lymphoreticular system, lesion: histiocytic sarcoma, dosed 80 weeks, study length 96 weeks) was 3450 mg/kg/day; the TD50 (mouse, strain B6C3F1, males, inhaled, site: lymphoreticular system, lesion: histiocytic sarcoma, dosed 80 weeks, study length 105 weeks) worked out at 150000 mg/kg/day; the TD50 (mouse, strain B6C3F1, males, inhaled, site: spleen, lesion: hemangiosarcoma, dosed 80 weeks, study length 96 weeks) came out at 25800 mg/kg/day; the TD50 (rat, strain Fischer 344, females, inhaled, site: any site (literature study), lesion: several types, types named in the paper, dosed 105 weeks, study length 105 weeks) stood at 6940 mg/kg/day. Also, the TD50 runs as follows: (rat, strain Fischer 344, females, inhaled, site: brain, meninges, lesion: granular-cell tumor, benign, dosed 105 weeks, study length 105 weeks) 40600 mg/kg/day; (rat, strain Fischer 344, females, inhaled, site: brain, meninges, lesion: sarcoma, dosed 105 weeks, study length 105 weeks) 50800 mg/kg/day; (rat, strain Fischer 344, females, inhaled, site: brain, lesion: malignant glioma, dosed 105 weeks, study length 105 weeks) 30800 mg/kg/day; (rat, strain Fischer 344, females, inhaled, site: brain, lesion: medulloblastoma, malignant, dosed 105 weeks, study length 105 weeks) 52800 mg/kg/day; (rat, strain Fischer 344, females, inhaled, site: liver, lesion: hepatocellular adenoma + hepatoblastoma + hepatocellular carcinoma, dosed 105 weeks, study length 105 weeks) 25300 mg/kg/day; (rat, strain Fischer 344, females, inhaled, site: mammary gland, lesion: fibroadenoma + fibroadenoma, multiple, dosed 105 weeks, study length 105 weeks) 3340 mg/kg/day. In addition, the TD50 (rat, strain Fischer 344, females, inhaled, site: mammary gland, lesion: fibroadenoma, multiple, dosed 105 weeks, study length 105 weeks) was 206 mg/kg/day; the TD50 (rat, strain Fischer 344, males, inhaled, site: kidney + mammary gland + testis, lesion: tubule adenoma + carcinoma + fibroadenoma + fibroadenoma, multiple + interstitial-cell adenoma, bilateral + interstitial-cell aden, dosed 104 weeks, study length 104 weeks) amounted to 988 mg/kg/day; the TD50 (rat, strain Fischer 344, males, inhaled, site: kidney, lesion: tubule adenoma + tubule carcinoma, dosed 104 weeks, study length 104 weeks) was 3150 mg/kg/day and 2290 mg/kg/day; the TD50 (rat, strain Fischer 344, males, inhaled, site: kidney, lesion: tubule adenoma, dosed 104 weeks, study length 104 weeks) was 3150 mg/kg/day and 2290 mg/kg/day; the TD50 (rat, strain Fischer 344, males, inhaled, site: mammary gland, lesion: carcinoma + fibroadenoma, dosed 104 weeks, study length 104 weeks) was 670 mg/kg/day; the TD50 (rat, strain Fischer 344, males, inhaled, site: mammary gland, lesion: carcinoma, dosed 104 weeks, study length 104 weeks) is 7880 mg/kg/day. Also, the TD50 is, setting by setting: (rat, strain Fischer 344, males, inhaled, site: mammary gland, lesion: fibroadenoma + fibroadenoma, multiple, dosed 104 weeks, study length 104 weeks) 655 mg/kg/day; (rat, strain Fischer 344, males, inhaled, site: mammary gland, lesion: fibroadenoma, multiple, dosed 104 weeks, study length 104 weeks) 2220 mg/kg/day; (rat, strain Fischer 344, males, inhaled, site: mammary gland, lesion: fibroadenoma, dosed 104 weeks, study length 104 weeks) 655 mg/kg/day; (rat, strain Fischer 344, males, inhaled, site: testis, lesion: interstitial-cell adenoma, bilateral + interstitial-cell adenoma, dosed 104 weeks, study length 104 weeks) 914 mg/kg/day; (rat, strain Fischer 344, males, inhaled, site: testis, lesion: interstitial-cell adenoma, dosed 26 weeks, study length 52 weeks) 316 mg/kg/day. Besides, for the setting “rat, strain Fischer 344, females, inhaled, site: brain, lesion: astrocytoma, benign, dosed 105 weeks, study length 105 weeks”, the carcinogen call is on record as “e”.
`O=c1c(CO)c/c(=N/Nc2ccc(S(=O)(=O)O)c3ccccc23)c(=O)/c1=N/Nc1ccc(S(=O)(=O)O)c2ccccc12`: the TD50 runs as follows: (mouse, strain Tuck, females, in feed, site: all sites, lesion: lymphosarcoma, dosed 80 weeks, study length 80 weeks) 36.3 mg/kg/day (inactive); (mouse, strain Tuck, females, in feed, site: liver, lesion: hyperplastic nodule, dosed 80 weeks, study length 80 weeks) 8440 mg/kg/day (inactive); (mouse, strain Tuck, males, in feed, site: liver, lesion: hyperplastic nodule, dosed 80 weeks, study length 80 weeks) 106000 mg/kg/day (inactive). Moreover, the carcinogen call was “negative (inactive)” (mouse, strain Tuck, females, in feed, site: lung, lesion: adenoma, dosed 80 weeks, study length 80 weeks); “negative (inactive)” (mouse, strain Tuck, males, in feed, site: liver, lesion: liver-cell adenoma, dosed 80 weeks, study length 80 weeks); “negative (inactive)” (mouse, strain Tuck, males, in feed, site: lung, lesion: adenoma, dosed 80 weeks, study length 80 weeks).
Consider `CC(=O)Nc1ccc(-c2ccc(F)cc2)cc1`, for which the TD50 (rat, strain Fischer 344, males, in feed, site: kidney, lesion: adenocarcinoma, dosed 52 weeks, study length 52 weeks) was 1.01 mg/kg/day.
For `CCCCCCCCCCC(C)c1ccc(S(=O)(=O)O)cc1` (stereo not given), the carcinogen call (rat, strain Slc-Wistar, females, in feed, site: preputial gland, lesion: several types, types named in the paper, dosed 142 weeks, study length 148 weeks) was “negative (inactive)” and the carcinogen call (rat, strain Slc-Wistar, males, in feed, site: preputial gland, lesion: several types, types named in the paper, dosed 127 weeks, study length 139 weeks) was “negative (inactive)”.

Usually TD50 stands for the 50% point of the dose-response relation for the toxic effect studied.
